Results from patent US8835644B2, “Broad spectrum benzothiophene-nitrothiazolide and other antimicrobials” (University of Virginia Patent Foundation, priority 2009, dated 2014).
Converted amounts (≈) assume the structure as drawn. Where two headings read alike, the source gives them in different places. Blank lines part the entries; values can stand above or below the molecule they belong to.

Tests used:
[1] = test system: C. difficile; experiment: MIC by agar dilution, C. difficile; assay type: cell-based, Clostridium difficile
Method: A standard broth dilution protocol was used in 96 well microplates containing a standard dilution of the microorganism to be tested in 100 microliters of the appropriate medium. Appropriate medium: E. coli, LB medium; Staphylococcus strains, Trypticase Soy; and for H. pylori and C. jejuni, Brain Heart Infusion. The compounds to be tested were set at 32 μg/ml in 200 microliters in well one and then serially diluted to provide a range from 32 to 0.06. The wells were scored visually at 24 h. The well where there was no growth was recorded as the MIC. […]
(§1) Representative compounds of the invention were tested in a series of assays against a series of organisms as described above. […] The organisms tested include, C. difficile, H. pylori, C. jejuni, MRSA, S. epidermidis, and E. coli. S. epidermidis and E. coli were tested in the plank and biofilm assay. A disk diffusion assay was also used for C. difficile. Direct PFOR enzyme assays were also performed. All analogues and derivatives were not tested on every organism in every type of assay (the “-” in each table means that it was not tested).

[2] = test system: H. pylori; experiment: MIC testing by broth dilution, H. pylori; assay type: cell-based, Helicobacter pylori
In short: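 Helicobacter pylori was tested using a standard broth dilution method in 96 well microplates, each well holding a standard dilution of the organism in 100 microliters of Brain Heart Infusion. Compounds started at 32 μg/ml in 200 microliters in the first well and were serially diluted from 32 to 0.06. Wells were read visually at 24 h, and the MIC was the well with no growth.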

[3] = test system: C. jejuni; experiment: MIC testing by broth dilution, C. jejuni; assay type: cell-based, Campylobacter jejuni
In short: (§2)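 Twofold broth microdilution from 32 μg/ml down to 0.06, in LB for E. coli, Trypticase Soy for S. epidermidis (planktonic) and Brain Heart Infusion for C. jejuni. C. difficile: anaerobic disk diffusion on Wilkins Chalgrin agar, inhibition zone expressed as a ratio to the NTZ zone.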

[4] = test system: MRSA; experiment: MIC testing by broth dilution, MRSA; assay type: cell-based, Staphylococcus aureus
In short: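 Values are broth-dilution MICs, defined as the well showing no growth on visual reading after 24 h; the tested range was 32 to 0.06 μg/ml, in organism-specific media (LB, Trypticase Soy, Brain Heart Infusion). The C. difficile entries come instead from anaerobic Kirby-Bauer disk zones, normalised to NTZ.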

[5] = test system: S. epidermidis; experiment: MIC testing by broth dilution, S. epidermidis plank; assay type: cell-based, Staphylococcus epidermidis
In short: as §2

[6] = test system: S. epidermidis biofilm; experiment: S. epidermidis biofilm assay (activity tables); assay type: cell-based, Staphylococcus epidermidis
In short: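 Overnight TSB cultures diluted to OD600 0.01 and grown static with compound (triplicate) at 37° C for 16 h; turbidity recorded for growth. Biofilm: washed wells ethanol-fixed, stained with 0.5% crystal violet, A570 read before and after 95% ethanol extraction; mean ± SD.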

[7] = test system: E. coli; experiment: MIC testing by broth dilution, E. coli plank; assay type: cell-based, Escherichia coli
In short: as §2

[8] = test system: E. coli biofilm; experiment: E. coli biofilm assay (activity tables); assay type: cell-based, Escherichia coli
In short: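 E. coli strain 042 inoculated 1:100 with NTZ-containing medium and grown statically at 37 °C for 24 h. Growth measured by turbidity or plate counts (cfu/ml); biofilm stained with 0.5% crystal violet and read at 570 nm; triplicate, mean ± SD.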

[9] = test system: PFOR (pyruvate ferredoxin oxidoreductase); experiment: Direct PFOR enzyme assay; assay type: biochemical
Method: as §1

[10] = test system: C. difficile; experiment: Disk diffusion (Kirby Bower), C. difficile; assay type: cell-based, Clostridium difficile; settings: for Disk Diffusion (%) C. difficile: zone of inhibited growth as relative ratio to the zone for NTZ
In short: as §2

[11] = broth dilution, Brain Heart Infusion, 24 h, read-out: MIC (μM) H. pylori
[12] = broth dilution, Brain Heart Infusion, 24 h, read-out: MIC (μM) C. jejuni
[13] = broth dilution, Trypticase Soy, 24 h, read-out: MIC (μM) MRSA
[14] = broth dilution, Trypticase Soy, 24 h, read-out: MIC (μM) S. epidermidis Plank
[15] = broth dilution, LB medium, 24 h, read-out: MIC (μM) E. coli Plank
[16] = biofilm; read-out: MIC (μM) E. coli Biofilm

SMILES: O=C(Nc1ncc([N+](=O)[O-])s1)c1ccc(C(=O)C(F)(F)F)cc1 [VPC161175]
MIC ([1]; agar dilution, anaerobic, Wilkins Chalgrin agar, read-out: MIC (μM) C. difficile): 23.2 µM (≈ 8.01 µg/mL)
MIC [2, 11]: 4.3 µM (≈ 1.48 µg/mL)
MIC [3, 12]: 69.5 µM (≈ 24 µg/mL)
MIC [4, 13]: 92.7 µM (≈ 32 µg/mL)
MIC [5, 14]: 92.7 µM (≈ 32 µg/mL)
MIC (μM) S. epidermidis Biofilm [6]: 92.7 µM (≈ 32 µg/mL)
MIC [7, 15]: 92.7 µM (≈ 32 µg/mL)
MIC [8, 16]: 92.7 µM (≈ 32 µg/mL)

SMILES: N#Cc1ccc(C(=O)Nc2ncc([N+](=O)[O-])s2)cc1 [VPC161086]
MIC [2, 11]: 9.1 µM (≈ 2.5 µg/mL)
MIC [3, 12]: 43.8 µM (≈ 12 µg/mL)
MIC [4, 13]: 14.6 µM (≈ 4 µg/mL)
MIC [5, 14]: 21.9 µM (≈ 6.01 µg/mL)
MIC (μM) S. epidermidis Biofilm [6]: 4.6 µM (≈ 1.26 µg/mL)
MIC [7, 15]: 87.5 µM (≈ 24 µg/mL)
MIC [8, 16]: 58.3 µM (≈ 16 µg/mL)
PFOR inhibition relative to nitazoxanide (=100) [9]: 74%

SMILES: O=C(Nc1ncc([N+](=O)[O-])s1)c1cc(Br)c(Br)o1 [VPC161164]
MIC ([2]; Furan analogues table, read-out: MIC H. pylori): 2.8 µM (≈ 1.11 µg/mL)
MIC ([3]; Furan analogues table, read-out: MIC C. jejuni): 20.2 µM (≈ 8.02 µg/mL)
MIC ([4]; Furan analogues table, read-out: MIC MRSA): 3.8 µM (≈ 1.51 µg/mL)
MIC ([5]; planktonic, Furan analogues table, read-out: MIC S. epidermidis Plank): 15.1 µM (≈ 5.99 µg/mL)
MIC S. epidermidis Biofilm ([6]; Furan analogues table): 20.2 µM (≈ 8.02 µg/mL)
MIC ([7]; planktonic, Furan analogues table, read-out: MIC E. coli Plank): 60.5 µM (≈ 24 µg/mL)
MIC ([8]; biofilm; Furan analogues table; read-out: MIC E. coli Biofilm): 40.3 µM (≈ 16 µg/mL)
PFOR inhibition relative to nitazoxanide (=100) ([9]; Furan analogues table): 56%

SMILES: O=C(C=Cc1ccccc1)Nc1ncc([N+](=O)[O-])s1 [VPC161200]
MIC [2, 11]: 0.3 µM (≈ 0.0826 µg/mL)
MIC [3, 12]: 2.7 µM (≈ 0.743 µg/mL)
MIC [4, 13]: 116.2 µM (≈ 32 µg/mL)
MIC [5, 14]: 29.1 µM (≈ 8.01 µg/mL)
MIC (μM) S. epidermidis Biofilm [6]: 14.5 µM (≈ 3.99 µg/mL)
MIC [7, 15]: 116.2 µM (≈ 32 µg/mL)
MIC [8, 16]: 116.2 µM (≈ 32 µg/mL)
PFOR inhibition relative to nitazoxanide (=100) [9]: 93%

MIC ([1]; Clostridioides difficile, agar dilution, anaerobic, Wilkins Chalgrin agar, read-out: MIC (μM) C. difficile): 65.8 µM (≈ 16 µg/mL)
MIC ([2]; Helicobacter pylori, broth dilution, Brain Heart Infusion, 24 h, read-out: MIC (μM) H. pylori): 1.4 µM (≈ 0.341 µg/mL)
MIC ([3]; Campylobacter jejuni, broth dilution, Brain Heart Infusion, 24 h, read-out: MIC (μM) C. jejuni): 5.5 µM (≈ 1.34 µg/mL)
MIC ([5]; Staphylococcus epidermidis, broth dilution, Trypticase Soy, 24 h, read-out: MIC (μM) S. epidermidis Plank): 32.9 µM (≈ 8 µg/mL)
MIC ([7]; Escherichia coli, broth dilution, LB medium, 24 h, read-out: MIC (μM) E. coli Plank): 132 µM (≈ 32 µg/mL)
MIC ([8]; Escherichia coli; read-out: MIC (μM) E. coli Biofilm): 132 µM (≈ 32 µg/mL)
PFOR inhibition relative to nitazoxanide (=100) [9]: 123%
SMILES: CCCCCC(=O)Nc1ncc([N+](=O)[O-])s1 [VPC16a1007, N-(5-Nitrothiazol-2-yl)hexanamide]
Disk Diffusion (%) C. difficile [10]: 56.5 ± 0.5%

SMILES: O=C(Nc1ncc([N+](=O)[O-])s1)c1ccc(F)cc1 [VPC161167, 4-Fluoro-N-(5-nitrothiazol-2-yl)benzamide]
MIC ([2]; Helicobacter pylori, 24 h, read-out: MIC (μM) H. pylori): 0.9 µM (≈ 0.241 µg/mL)
MIC ([3]; Campylobacter jejuni, 24 h, read-out: MIC (μM) C. jejuni): 2.8 µM (≈ 0.748 µg/mL)
MIC ([4]; Staphylococcus aureus, MRSA, 24 h, read-out: MIC (μM) MRSA): 8.4 µM (≈ 2.24 µg/mL)
MIC ([5]; Staphylococcus epidermidis, 24 h, read-out: MIC (μM) S. epidermidis Plank): 15 µM (≈ 4.01 µg/mL)
MIC (μM) S. epidermidis Biofilm [6]: 29.9 µM (≈ 7.99 µg/mL)
MIC ([7]; Escherichia coli, 24 h, read-out: MIC (μM) E. coli Plank): 120 µM (≈ 32 µg/mL)
MIC ([8]; Escherichia coli, read-out: MIC (μM) E. coli Biofilm): 120 µM (≈ 32 µg/mL)
Disk Diffusion (%) C. difficile [10]: 89%
PFOR inhibition relative to nitazoxanide (=100) [9]: 99%

MIC ([1]; Clostridioides difficile, Furan analogues table, read-out: MIC C. difficile): 33.4 µM (≈ 7.99 µg/mL)
MIC ([2]; Helicobacter pylori, Furan analogues table, read-out: MIC H. pylori): 0.8 µM (≈ 0.191 µg/mL)
MIC ([3]; Campylobacter jejuni, Furan analogues table, read-out: MIC C. jejuni): 12.5 µM (≈ 2.99 µg/mL)
MIC ([4]; Staphylococcus aureus, MRSA, Furan analogues table, read-out: MIC MRSA): 50.2 µM (≈ 12 µg/mL)
MIC ([7]; Escherichia coli, planktonic, Furan analogues table, read-out: MIC E. coli Plank): 134 µM (≈ 32 µg/mL)
MIC ([8]; Escherichia coli; biofilm; Furan analogues table; read-out: MIC E. coli Biofilm): 134 µM (≈ 32 µg/mL)
PFOR inhibition relative to nitazoxanide (=100) ([9]; Furan analogues table): 98%
SMILES: O=C(Nc1ncc([N+](=O)[O-])s1)c1ccoc1 [VPC16a1006, N-(5-Nitrothiazol-2-yl)furan-3-carboxamide]
Disk Diff (%) C. difficile ([10]; Nitazoxanide = 100, Furan analogues table): 97 ± 3%
